Data published in patent US9839638B2, “Compositions and methods for protecting cells during cancer chemotherapy and radiotherapy” (Wisconsin Alumni Research Foundation, priority 2000, dated 2017).

Experiments:
[1] = system: CTX induced alopecia in 7 day old rat pups; test: Prevention of cytoxan (CTX)-induced alopecia by topical chemoprotective inducers in rat pups; format: in vivo, Sprague Dawley rats; details: for protective effect against CTX-induced hair loss (hair density): topical in nonionic liposomes day -2 to day 6, CTX i.p. day 0, scored day 7, 100% = untreated control pups; for alopecia when delivered in minoxidil vehicle (propylene glycol:ethanol:water): minoxidil carrier, compared with CTX-treated pups without inducer
[2] = system: 7 day old rat pups (hair loss); details: 40 μg/gm CTX i.p., 7 day old pups, examined seven days after
Method: Lactating Sprague Dawley rats with 12 pups per mother were purchased from Harlan Sprague Dawley. To produce CTX induced alopecia, several concentrations (35, 40 45 μg/gm body weight) of CTX in water were injected i.p. in to 7 day old pups. Seven days after CTX treatment the pups were examined to determine the degree of hair loss. The pups were gently brushed on the back to remove the loose hair sticking onto the skin and photographed. The density of hair on the pups was then determined.

[3] = system: chemoprotective/stress-related genes (GST-PI, GST-Mu2, GST-Ya, GST) in rat pup skin; test: Rat stress gene cDNA expression array on skin samples of treated rat pups; format: in vivo; details: topical 15 mM for 5 days; compared to rat pups treated with cytoxan
Method: In brief, rat pups were treated with either CTX or B-NF and at different time intervals skin samples were collected and total RNA was extracted from them. The RNA was reverse transcribed to form the respective cDNAs in the presence of ^32P dATP using primers specific for stress-related genes. The radiolabeled cDNA synthesized was used to probe a rat stress gene cDNA expression array consisting of 207 stress-related genes (Clontech) according to the manufacturer's protocol. The hybridized membrane was exposed to a phosphorimager screen and the image obtained was aligned with an orientation grid to identify the genes that are expressed. Images from control, CTX, treated and B-NF-treated animals were compared to determine the changes, if any, in the expression pattern of chemoprotective genes under these experimental conditions.

CC(C)(C)c1cc(O)ccc1O [tBHQ, tert-butylhydroquinone]
protective effect against CTX-induced hair loss (hair density) [1]: 10%

O=P1(N(CCCl)CCCl)NCCCO1 (stereo not shown) [CTX]
hair loss induced [2]: 100%

O=c1cc(-c2ccccc2)oc2ccc3ccccc3c12 [B-NF, β-naphthoflavone]
protective effect when applied only on the day before cytoxan ([1]; applied only on the day before cytoxan): substantial protective effect | alopecia when delivered in minoxidil vehicle (propylene glycol:ethanol:water) [1]: as severe as the untreated CTX-treated rat pups | alopecia when delivered in minoxidil vehicle (propylene glycol:ethanol:water) ([1]; listed as BNF): hair loss equivalent to that observed in cytoxan-treated animals not pre-treated | protective effect against CTX-induced hair loss (hair density) [1]: 80% | expression level of GST-PI, GST-Mu2, GST-Ya and GST (rat homolog of human) in skin [3]: significant increase

C[S+]([O-])CCCCN=C=S (stereo not shown) [sulphoraphane]
protective effect against CTX-induced hair loss (hair density) [1]: 5%

Cc1c(-c2cnccn2)ssc1=S [Oltipraz]
protective effect against CTX-induced hair loss (hair density) [1]: 50%

COc1ccc(O)c(C(C)(C)C)c1 [BHA]
protective effect against CTX-induced hair loss (hair density) [1]: 60%
